The test has as its target T1, CRF-1 receptor (Homo sapiens, UniProt P34998).
T1 construct: expressed in transfected cells; host or cells: HEK293T/17
T1 sequence (P34998 24-415): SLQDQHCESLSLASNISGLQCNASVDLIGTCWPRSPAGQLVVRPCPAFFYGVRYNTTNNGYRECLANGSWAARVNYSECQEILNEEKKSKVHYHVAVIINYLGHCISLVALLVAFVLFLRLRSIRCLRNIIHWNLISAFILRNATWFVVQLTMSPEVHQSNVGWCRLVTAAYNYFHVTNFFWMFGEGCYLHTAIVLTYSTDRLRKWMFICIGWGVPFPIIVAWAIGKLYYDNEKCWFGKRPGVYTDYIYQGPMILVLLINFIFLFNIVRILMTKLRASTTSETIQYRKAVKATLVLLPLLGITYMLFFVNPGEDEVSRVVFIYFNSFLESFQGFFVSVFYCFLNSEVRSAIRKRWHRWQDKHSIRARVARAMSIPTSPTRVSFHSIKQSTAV
Put plainly: CRF-1 receptor competitive binding vs. [125I]sauvagine. Particulars: for Ki: transfected HEK293T/17 cells expressing the CRF-1 receptor, radioligand [125I]sauvagine, read-out: CRF-1 Receptor Binding Affinities (vs. [125I] Sauvagine) Ki; for affinity for the CRF-1 receptor (in words): vs. [125I]sauvagine, only slightly reduced from that found for R121919. An excerpt:
Pyrido[2,3-b]pyrazin-2-ones of type VI (Table 1) were synthesized according to the procedure reported by Dzierba, et al., (J. Med. Chem. 2004, 47, 5783-5790) as shown in Scheme 21.

One may read the Ki as the equilibrium dissociation constant of an inhibitor or competing ligand from its target. As to `CCCCN(CC)c1cc(C)nc2c1NC(=O)CN2c1ccc(Br)cc1C` [Compound 188, 8-(Butylethylamino)-4-(2-methyl-4-bromophenyl)-6-methyl-3,4-dihydro-1H-pyrido[2,3-b]pyrazin-2-one], the inhibition constant Ki came to 5.7 ± 0.3 nM and the “affinity for the CRF-1 receptor (in words)” value is recorded as “high affinity”.
On the same counts, the results for `CCCCN(CC)c1cc(C)nc2c1NC(=O)CN2c1ccc(C)cc1Br` [Compound 185, 4-(2-Bromo-4-methylphenyl)-8-(butylethylamino)-6-methyl-3,4-dihydra-1H-pyrido[2,3-b]pyrazin-2-one] are 6.2 ± 1.4 nM and “high affinity”.
The like results for `CCCCN(CC)c1cc(C)nc2c1NC(=O)CN2c1ccc(C)cc1C` [Compound 191, 8-(Butylethylamino)-4-(2,4-dimethylphenyl)-6-methyl-3,4-dihydro-1H-pyrido[2,3-b]pyrazin-2-one] were, in that order, 9.1 nM and “high affinity”.

Values taken from US8551996B2, “Compounds, compositions, methods of synthesis, and methods of treatment” (Emory University, priority 2009, dated 2013).
